# Target: T1, MDM2 (Homo sapiens, UniProt Q00987)
# T1 construct: made in house
# Assay: Inhibition test of MDM2-P53 (GST-MDM2, Biotin-P53, Anti-GST-Tb, SA-XL665)
# Type: binding
# Conditions: for inhibitory effect on MDM2 compared with positive control compound HDM201: labels are Example numbers, the compounds with S-configuration are meant
# In short: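 Compounds, serially diluted 5-fold (twelve concentrations), were shaken for 90 min at 25° C with a mix of GST-MDM2 (4 nM final), Biotin-P53, anti-GST-Tb and SA-XL665. Buffer: 1×PBS, 0.1% BSA, 5 mM DTT, 1 mM AEBSF; signal read on a microplate reader.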
# T1 sequence (Q00987 whole entry): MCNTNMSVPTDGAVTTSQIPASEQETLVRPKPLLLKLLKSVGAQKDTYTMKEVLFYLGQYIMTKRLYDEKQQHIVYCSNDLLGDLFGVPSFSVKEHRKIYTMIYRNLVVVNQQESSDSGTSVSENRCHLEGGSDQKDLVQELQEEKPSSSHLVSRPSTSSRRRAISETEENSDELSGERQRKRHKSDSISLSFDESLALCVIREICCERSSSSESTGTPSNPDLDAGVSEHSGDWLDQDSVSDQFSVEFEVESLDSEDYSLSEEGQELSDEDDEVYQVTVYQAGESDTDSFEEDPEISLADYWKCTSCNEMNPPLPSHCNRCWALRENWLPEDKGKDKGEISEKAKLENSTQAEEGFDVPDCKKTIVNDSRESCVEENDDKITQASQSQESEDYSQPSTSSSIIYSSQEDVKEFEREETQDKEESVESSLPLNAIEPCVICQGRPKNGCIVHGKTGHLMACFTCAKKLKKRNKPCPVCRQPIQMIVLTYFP
structure (smiles),measurement,value
"CCOc1cc(OC)c(-c2nc3c(n2C(C)C)[C@]2(C(=O)Nc4cc(Cl)ccc42)N(c2cccc(Cl)c2)C3=O)cn1 [Example R-102, (R)-6-chloro-5′-(3-chlorophenyl)-2′-(6-ethoxy-4-methoxypyridin-3-yl)-3′-isopropyl-3′H-spiro[dihydroindole-3,4′-pyrrolo[3,4-d]imidazole]-2,6′(5′H)-dione]",IC50,413 nM
"COc1cc(OC2CC2)ncc1-c1nc2c(n1C(C)C)[C@]1(C(=O)Nc3cc(Cl)ccc31)N(c1cc(Cl)ccc1C)C2=O [Example R-110, (R)-6-chloro-5′-(5-chloro-2-methylphenyl)-2′-(6-cyclopropoxy-4-methoxypyridin-3-yl)-3′-isopropyl-3′H-spiro[dihydroindole-3,4′-pyrrolo[3,4-d]imidazole]-2,6′(5′H)-dione]",IC50,704 nM
"COc1cc(OCCF)ncc1-c1nc2c(n1C(C)C)[C@]1(C(=O)Nc3cc(Cl)ccc31)N(c1cc(Cl)ccc1C)C2=O [Example R-163, (R)-6-chloro-5′-(5-chloro-2-methylphenyl)-2′-(6-(2-fluoroethoxy)-4-methoxypyridin-3-yl)-3′-isopropyl-3′H-spiro[dihydroindole-3,4′-pyrrolo[3,4-d]imidazole]-2,6′(5′H)-dione]",IC50,166 nM
"COc1cc(C(F)(F)F)ncc1-c1nc2c(n1C(C)C)[C@]1(C(=O)Nc3cc(Cl)ccc31)N(c1cc(Cl)cnc1C)C2=O [Example R-152, (R)-6-chloro-5′-(5-chloro-2-methylpyridin-3-yl)-3′-isopropyl-2′-(4-methoxy-6-(trifluoromethyl)pyridine-3-yl)-3′H-spiro[dihydroindole-3,4′-pyrrolo[3,4-d]imidazole]-2,6′(5′H)-dione]",IC50,134 nM
"COc1cc(C(F)(F)F)ncc1-c1nc2c(n1C(C)C)C1(C(=O)Nc3cc(Cl)ccc31)N(c1cc(Cl)cnc1C)C2=O (centres unmarked) [Example 152, 6-chloro-5′-(5-chloro-2-methylpyridin-3-yl)-3′-isopropyl-2′-(4-methoxy-6-(trifluoromethyl)pyridine-3-yl)-3′H-spiro[dihydroindole-3,4′-pyrrolo[3,4-d]imidazole]-2,6′(5′H)-dione]",inhibitory effect on MDM2 compared with positive control compound HDM201,better
"COc1cc(C(N)=O)ccc1-c1nc2c(n1C(C)C)C1(C(=O)Nc3cc(Cl)ccc31)N(c1cc(Cl)ccc1C)C2=O (centres unmarked) [Example 77, 4-(6-chloro-5′-(5-chloro-2-methylphenyl)-3′-isopropyl-2,6′-dioxo-5′,6′-dihydro-3′H-spiro[dihydroindole-3,4′-pyrrolo[3,4-d]imidazole]-2′-yl)-3-methoxybenzamide]",inhibitory effect on MDM2 compared with positive control compound HDM201,better
"CCOc1cc(OC)c(-c2nc3c(n2C(C)C)[C@]2(C(=O)Nc4cc(Cl)ccc42)N(c2cc(Cl)ccc2F)C3=O)cn1 [Example R-98, (R)-6-chloro-5′-(5-chloro-2-fluorophenyl)-2′-(6-ethoxy-4-methoxypyridin-3-yl)-3′-isopropyl-3′H-spiro[dihydroindole-3,4′-pyrrolo[3,4-d]imidazole]-2,6′(5′H)-dione]",IC50,1030 nM
"COc1ncc(-c2nc3c(n2C(C)C)[C@]2(C(=O)Nc4cc(Cl)ccc42)N(c2ccc(C#N)c(Cl)c2)C3=O)c(OC)n1 [Example R-158, (R)-2-chloro-4-(6-chloro-2′-(2,4-dimethoxypyrimidin-5-yl)-3′-isopropyl-2,6′-dioxo-3′,6′-dihydro-5′H-spiro[dihydroindole-3,4′-pyrrolo[3,4-d]imidazole]-5′-yl)benzonitrile]",IC50,2200 nM
"COc1cc(N(C)C)ccc1-c1nc2c(n1C(C)C)C1(C(=O)Nc3cc(Cl)ccc31)N(c1cc(Cl)ccc1F)C2=O (centres unmarked) [Example 81, 6-chloro-5′-(5-chloro-2-fluorophenyl)-2′-(4-(dimethylamino)-2-methoxyphenyl)-3′-isopropyl-3′H-spiro[dihydroindole-3,4′-pyrrolo[3,4-d]imidazole]-2,6′(5′H)-dione]",inhibitory effect on MDM2 compared with positive control compound HDM201,better
"CNC(=O)c1ccc(-c2nc3c(n2C(C)C)[C@]2(C(=O)Nc4cc(Cl)ccc42)N(c2cc(Cl)ccc2C)C3=O)c(OC)c1 [Example R-54, (R)-4-(6-chloro-5′-(5-chloro-2-methylphenyl)-3′-isopropyl-2,6′-dioxo-5′,6′-dihydro-3′H-spiro[dihydroindole-3,4′-pyrrolo[3,4-d]imidazole]-2′-yl)-3-methoxy-N-methylbenzamide]",IC50,1960 nM
"COc1ncc(-c2nc3c(n2C(C)C)[C@]2(C(=O)Nc4cc(Cl)ccc42)N(c2ccc(OC(F)(F)F)c(Cl)c2)C3=O)c(OC)n1 [Example R-161, (R)-6-chloro-5′-(3-chloro-4-(trifluoromethoxy)phenyl)-2′-(2,4-dimethoxypyrimidin-5-yl)-3′-isopropyl-3′H-spiro[dihydroindole-3,4′-pyrrolo[3,4-d]imidazole]-2,6′(5′H)-dione]",IC50,126 nM
"COc1cc(C)ncc1-c1nc2c(n1C(C)C)[C@]1(C(=O)Nc3cc(Cl)ccc31)N(c1cc(Cl)ccc1C)C2=O [Example R-154, (R)-6-chloro-5′-(5-chloro-2-methylphenyl)-3′-isopropyl-2′-(4-methoxy-6-methylpyridin-3-yl)-3′H-spiro[dihydroindole-3,4′-pyrrolo[3,4-d]imidazole]-2,6′(5′H)-dione]",IC50,31.1 nM
"COc1ncc(-c2nc3c(n2C2CC2)[C@]2(C(=O)Nc4cc(Cl)ccc42)N(c2cc(Cl)ccc2C)C3=O)c(OC)n1 [Example R-28, (R)-6-chloro-5′-(5-chloro-2-methylphenyl)-3′-cyclopropane-2′-(2,4-dimethoxypyrimidin-5-yl)-3′H-spiro[dihydroindole-3,4′-pyrrolo[3,4-d]imidazole]-2,6′(5′H)-dione]",IC50,3110 nM
"COc1cc(C(C)C)ncc1-c1nc2c(n1C(C)C)[C@]1(C(=O)Nc3cc(Cl)ccc31)N(c1cc(Cl)ccc1C)C2=O [Example R-164, (R)-6-chloro-5′-(5-chloro-2-methylphenyl)-3′-isopropyl-2′-(6-isopropyl-4-methoxypyridin-3-yl)-3′H-spiro[dihydroindole-3,4′-pyrrolo[3,4-d]imidazole]-2,6′(5′H)-dione]",IC50,592 nM
"COc1nc(OCC(F)(F)F)ncc1-c1nc2c(n1C(C)C)[C@]1(C(=O)Nc3cc(Cl)ccc31)N(c1cc(Cl)ccc1C)C2=O [Example R-141, (R)-6-chloro-5′-(5-chloro-2-methylphenyl)-3′-isopropyl-2′-(4-methoxy-2-(2,2,2-trifluoroethoxy)pyrimidin-5-yl)-3′H-spiro[dihydroindole-3,4′-pyrrolo[3,4-d]imidazole]-2,6′(5′H)-dione]",IC50,762 nM
"COc1cc(N)ccc1-c1nc2c(n1C(C)C)C1(C(=O)Nc3cc(Cl)ccc31)N(c1cc(F)cc(Cl)c1)C2=O (centres unmarked) [Example 67, 2′-(4-amino-2-methoxyphenyl)-6-chloro-5′-(3-chloro-5-fluorophenyl)-3′-isopropyl-3′H-spiro[dihydroindole-3,4′-pyrrolo[3,4-d]imidazole]-2,6′(5′H)-dione]",inhibitory effect on MDM2 compared with positive control compound HDM201,better
"COc1cc(C2CC2)ncc1-c1nc2c(n1C(C)C)[C@]1(C(=O)Nc3cc(Cl)ccc31)N(c1cccc(Cl)c1)C2=O [Example R-106, (R)-6-chloro-5′-(3-chlorophenyl)-2′-(6-cyclopropyl-4-methoxypyridin-3-yl)-3′-isopropyl-3′H-spiro[dihydroindole-3,4′-pyrrolo[3,4-d]imidazole]-2,6′(5′H)-dione]",IC50,481 nM
